Results as given in US5849801A, “4-amino-5-oxy-2,6,6-trimethyl-2-cycloheptene compounds” (Tokyo Tanabe Company Limited, priority 1995, dated 1998).
Structures can show the parent of a compound that is named as a salt.

Key:
[1] = test system: histamine-induced guinea pig bronchoconstriction; test: Effect on histamine-induced guinea pig bronchoconstriction models; format: in vivo, male Hartley guinea pigs; details: inhalation for 30 seconds, hydrochloride, histamine 3 μg/kg i.v. after 2 minutes
Procedure: After urethane anesthetization of male Hartley guinea pigs (body weight: 350~450 g, 5 per group, Nihon Crea Co.), a small cannula was inserted into trachea. Next, gallamine triethiodide (1 mg/kg) was intravenously administered, and the tracheal cannula was connected to a constant volume respirator. The artificial respiration was conducted with an air volume per breath of 7~10 ml, a breath frequency of 60/min and a lung application pressure of 10 cm water. The volume of air overflowing from the legs on the cannula side was recorded on a polygraph (RM6100: product of Nihon Koden Co.) with a model 7020 bronchospasm transducer (product of Ugo Basile). Hydrochloride of the test compounds were dissolved in physiological saline, and inhalation was performed with reference to the method of Minami et al. […] The inhalation load apparatus was prepared by directly incorporating an ultrasonic nebulizer into an artificial respiration circuit (Omron ultrasonic aspirator NE-U11B, product of […] Electric Co.). The test compound (mg/0.5 ml) was administered by inhalation for 30 seconds, and after 2 minutes histamine (3 μg/kg) was intravenously administered and the air overflow volume was measured. The bronchoconstriction rate was calculated as a percentage with 100 being the height of contraction when the airway was completely constricted. The inhibition rate was calculated by dividing the contraction rate of the test compound group by the contraction rate of the control group.

[2] = test system: platelet aggregation induced by arachidonic acid; test: Inhibiting effect on platelet aggregation (in vitro), arachidonic acid as aggregating agent; format: cell-based, Japanese white male house rabbits; details: Oryctolagus cuniculus; arachidonic acid 68.6 μg/ml, 37° C., platelet suspension
Procedure: (§1) Platelet rich plasma was prepared from Japanese white male house rabbits (body weight: 2.5~3.0 kg) following the method of Suzuki et al. (Suzuki, K. et al., The Clinical Report, Vol. 21, No. 13, p. 5263, 1987). The resulting platelet rich plasma solution was appropriately diluted with a Tris-Tyrode buffer solution (pH 7.4) to prepare a 4×10^5 platelet/μl platelet suspension to be used for the test. The platelet aggregation was measured using a platelet aggregometer (NBS Hematoracer 601, product of Nikoh Bioscience Co.). Specifically, 250 μl of the platelet suspension, 5 μl of a 96 mM calcium chloride solution and 5 μl of the test compound solution dissolved in methanol were added to a cuvette, and after incubating for one minute at 37° C., 20 μl of an aggregating agent was added and the maximum degree of aggregation occurring was determined. The aggregating agents used were platelet activating factor (PAF) (2.5 ng/ml) and arachidonic acid (68.6 μg/ml). The 50% inhibition concentration (IC50) was calculated from the results of measurement with various concentrations of each test compound.

[3] = test system: rat peripheral arterial occlusion models; test: Effect on rat peripheral arterial occlusion models (5% lactic acid induced); format: in vivo, SD rats; details: i.v., lower leg lesions at 14 days
Procedure: Models were prepared following the method of Iwamoto et al. (Iwamoto, M. et al., Japanese Pharmacology & Therapeutics, Vol. 14, Suppl. 5, p. 41, 1986). Upon minimal dissection of the femoral regions of SD rats (6 per group) with a body weight of 250~350 g under Nembutal anesthesia, 0.1 ml of 5% lactic acid was administered intraarterially. The rats were raised for 14 days under normal conditions, and observed for lesions of the lower legs. The grading for the lesions was: "1" for nigrities only at the nail tips, "2" for nigrities up to the digits, "3" for necrosis of the digits, and "4" deciduation of the digits. Each of the digits of the lower legs on the side where lactic acid had been administered were graded, and the overall grade was determined as the index of lesions. The disorder inhibition rate was determined by dividing the index of lesions in the drug-administered group by the index of lesions of the control group. The drugs were dissolved in physiological saline or dimethylsulfoxide, and injected through the caudal vein 5 minutes prior to injection of the 5% lactic acid.

[4] = test system: calcium contraction of the thoracic aorta; test: Effect on calcium contraction (in vitro), thoracic aorta specimens; design: species or system Male SD rats; details: Rattus norvegicus; 1×10^-7 M in dimethylsulfoxide; 0.3 mM calcium chloride, 80 mM KCl buffer
Procedure: This was investigated according to the method of Ishibashi, et al. (Ishibashi, A. et al., Folia Pharmacologica Japonica, Vol. 82, p. 361, 1983). Male SD rats of body weight approximately 300 g were used to prepare thoracic aorta extract specimens, which were suspended and immobilized in a organ bath containing 10 ml of Krebs-Henseleit buffer solution at 37° C. through which a mixed gas of oxygen (95%) and carbon dioxide (5%) had been passed. After equilibrating the specimens, they were equilibrated in a buffer solution without calcium chloride and then in an isotonic calcium-free 80 mM potassium chloride buffer solution replaced with potassium ions, and a resting tension of 0.2 g was applied. Contraction was induced by addition of 0.3 mM calcium chloride. The test compounds were added 10 minutes prior to addition of the calcium solution. The percent inhibition of the test compounds were calculated using the first contraction as the control (100% contraction). The test compounds were used for the test as solutions in dimethylsulfoxide at a 1×10^-7 M concentration.

[5] = test system: blood pressure of anesthetized rats; test: Effect on blood pressure of anesthetized rats; format: in vivo, Male SD rats; details: Rattus norvegicus, intravenous, diastolic, urethane anesthesia, read-out: Reduction of blood pressure (%)
Procedure: Male SD rats (body weight: 250~350 g, product of Nihon Crea Co.) were placed under urethane anesthesia and then a sphygmomanometric pressure transducer was inserted into the left cervical artery and recording was made on a polygraph (RM6100, product of Nihon Koden Co.) using a strain pressure […], product of Nihon Koden Co.). The test compounds were dissolved in physiological saline and administered intravenously. The change in blood pressure was indicated as the reduction rate from the initial value of diastolic blood pressure just prior to administration of the test compound.

[6] = test system: antigen-induced guinea pig bronchoconstriction; test: Effect on antigen-induced guinea pig bronchoconstriction; format: in vivo, Male Hartley guinea pigs; details: inhaled one minute before i.v. DNP-bovine serum albumin; observed 15 minutes; passively sensitized
Procedure: Male Hartley guinea pigs (body weight: 300~450 g, Nihon Crea Co.) were intraperitonealy administered anti-DNP-Ascarls serum (1024-fold antibody titer) at 0.5 ml/kg. After 24 hours, under urethane anesthesia there were inserted a cannula into the trachea, a sphygmomanometric cannula into the left cervical artery and a drug injection cannula into the right jugular vein, and gallamine triethiodide (1.0 mg/0.5 ml/kg) was intravenously administered and connected to an artificial respirator (product of Ugo Basile). For the test, diphenhydramine (60 mg/ml/kg) was intraperitoneally administered, the compound of Example 16 was inhaled as the test compound after 14 minutes, and following intravenous administration of DNP-bovine serum albumin (1.0 mg protein/0.5 ml/kg) one minute after administration of the test compound, the degree of bronchoconstriction was observed over a period of 15 minutes. The bronchoconstriction rate was given as a percentage of the maximum air over flow volume obtained by clamping off the trachea. The test compounds were inhaled by nebulizing for 30 seconds with an ultrasonic nebulizer.

[7] = test system: platelet aggregation induced by platelet activating factor (PAF); test: Inhibiting effect on platelet aggregation (in vitro), platelet activating factor (PAF) as aggregating agent; format: cell-based, Japanese white male house rabbits; details: Oryctolagus cuniculus; PAF 2.5 ng/ml, 37° C., platelet suspension
Procedure: as §1

SMILES | inhibition at 0.1 µM [4] [%] | inhibition in vivo at 10 mg/kg [5] [%] | Brochoconstriction inhibition rate ([1]; 3.0 mg/0.5 ml) [%] | further results
CC1=CC(N2CCCCC2)C(O)C(C)(C)CC1=O (single isomer, unassigned; (-)) [(-) Compound of Example 35, (-)-5-hydroxy-4-piperidino-2,6,6-trinethyl-2-cyclohepten-1-one] |  |  |  | Brochoconstriction inhibition rate ([1]; 10.0 mg/0.5 ml): 64%
CC1=CC(NCc2ccccc2)C(O)C(C)(C)CC1=O (stereo not drawn) [Example 1, 4-benzylamino-5-hydroxy-2,6,6-trimethyl-2-cyclohepten-1-one] | 48 |  |  | IC50 [2]: 100 µM; Inhibition rate ([3]; 5 mg/kg, in physiological saline): 42%
CC1=CC(NCCc2ccccc2)C(O)C(C)(C)CC1=O (stereo not drawn) [Example 2, 4-(2-phenylethylamino)-5-hydroxy-2,6,6-trimethyl-2-cyclohepten-1-one] |  |  |  | inhibition in vivo at 1 mg/kg [5]: 16%; inhibition in vivo at 3 mg/kg [5]: 31%
CCOC(=O)c1ccc(CNC2C=C(C)C(=O)CC(C)(C)C2O)cc1 (stereo not drawn) [Example 4, 5-hydroxy-4-(4-ethoxycarbonylbenzylamino)-2,6,6-trimethyl-2-cyclohepten-1-one] | 33 |  |  | 
CC1=CC(Nc2ccccc2)C(O)C(C)(C)CC1=O (stereo not drawn) [Example 5, 5-hydroxy-4-phenylamino-2,6,6-trimethyl-2-cyclohepten-1-one] |  |  |  | Inhibition rate ([3]; 5 mg/kg, in DMSO): 35%
CC1=CC(NC2CCCC2)C(O)C(C)(C)CC1=O (stereo not drawn) [Example 7, 4-cyclopentylamino-5-hydroxy-2,6,6-trimethyl-2-cyclohepten-1-one hydrochloride] |  | 34 |  | 
CC1=CC(NC2CCCCC2)C(O)C(C)(C)CC1=O (stereo not drawn) [Example 8, 4-cyclohexylamino-5-hydroxy-2,6,6-trimethy-2-cyclohepten-1-one hydrochloride] |  | 45 |  | 
CCCCNC1C=C(C)C(=O)CC(C)(C)C1O.Cl (stereo not drawn) [Example 9, 4-(1-butylamino)-5-hydroxy-2,6,6-trimethyl-2-cyclohepten-1-one hydrochloride] |  | 51 |  | Brochoconstriction inhibition rate ([1]; 1.0 mg/0.5 ml): 57%; inhibition in vivo at 1 mg/kg [5]: 14%; inhibition in vivo at 3 mg/kg [5]: 32%
COCCNC1C=C(C)C(=O)CC(C)(C)C1O (stereo not drawn) [Example 10, 5-hydroxy-4-(2-methoxyethylamino)-2,6,6-trimethyl-2-cyclohepten-1-one] | 32 |  |  | 
CC1=CC(NC(C)(C)C)C(O)C(C)(C)CC1=O (stereo not drawn) [Example 12, 5-hydroxy-4-(tert-butylamino)-2,6,6-trimethyl-2-cyclohepten-1-one] |  | 33 |  | 
CCN(CC)C1C=C(C)C(=O)CC(C)(C)C1O (stereo not drawn) [Example 13, 4-diethylamino-5-hydroxy-2,6,6-trimethyl-2-cyclohepten-1-one] |  | 28 |  | 
CC1=CC(N2CCCC2)C(O)C(C)(C)CC1=O.Cl (stereo not drawn) [Example 15, 5-hydroxy-4-pyrrolidino-2,6,6-trimethyl-2-cyclohepten-1-one hydrochloride] |  | 26 | 73 | 
CC1=CC(N2CCCCC2)C(O)C(C)(C)CC1=O (stereo not drawn) [Example 16, 5-hydroxy-4-piperidino-2,6,6-trinethyl-2-cyclohepten-1-one hydrochloride] | 24 | 40 | 32 | Brochoconstriction inhibition rate ([1]; 10.0 mg/0.5 ml): 46%; IC50 [2]: 100 µM; inhibition in vivo at 1 mg/kg [5]: 6%; inhibition in vivo at 3 mg/kg [5]: 16%; Inhibition rate ([3]; 3 mg/kg, solvent physiological saline (printed once, above)): 65%; Inhibition rate ([3]; 30 mg/kg, solvent physiological saline (printed once, above)): 78%; airway contraction / bronchoconstriction (FIG. 1) [6]: inhibited airway contract ion
CC1=CC(N2CCCCCC2)C(O)C(C)(C)CC1=O (stereo not drawn) [Example 17, 4-hexamethyleneimino-5-hydroxy-2,6,6-trimethyl-2-cyclohepten-1-one] |  | 42 |  | 
CC1=CC(N2CCOCC2)C(O)C(C)(C)CC1=O (stereo not drawn) [Example 18, 5-hydroxy-4-morpholino-2,6,6-trimethyl-2-cyclohepten-1-one] | 39 |  |  | IC50 [7]: 98 µM
CC1=CC(N2CCN(C)CC2)C(O)C(C)(C)CC1=O (stereo not drawn) [Example 22, 5-hydroxy-4-(4-methylpiperazino)-2,6,6-trimethyl-2-cyclohepten-1-one] | 48 |  | 17 | 
CC1=CC(N2CCC(O)CC2)C(O)C(C)(C)CC1=O (stereo not drawn) [Example 23, 4-(4-hydroxypiperidino)-5-hydroxy-2,6,6-trimethyl-2-cyclohepten-1-one] |  |  | 23 | 
CC1=CC(N2CCC3(CC2)OCCO3)C(O)C(C)(C)CC1=O (stereo not drawn) [Example 26, 4-(1,4-dioxa-8-aza-spiro[5.4]decan-8-yl)-5-hydroxy-2,6,6-trimethyl-2-cyclohepten-1-one] |  |  | 53 | IC50 [2]: 36 µM
CC1=CC(N(C)Cc2ccccc2)C(O)C(C)(C)CC1=O (stereo not drawn) [Example 28, 5-hydroxy-4-(N-methylbenzylamino)-2,6,6-trimethyl-2-cyclohepten-1-one] |  |  |  | IC50 [2]: 11 µM
CC1=CC(N2CCCCC2)C(O)C(C)(C)CC1=NO (stereo not drawn) [Example 30, 5-hydroxy-4-piperidino-2,6,6-trimethyl-2-cyclohepten-1-one oxime] |  |  | 42 | 
